Numbers after ± are expanded uncertainties.
Experiment: xn = mol fraction of the nth substance listed
Details: Liquid, Vibrating tube method

CCCCCCCC [octane] + CCCO
Details	mass density [kg/m3]
343.15 K, 15010 kPa, x2 = 0.7301	726.47 ± 4.7
343.15 K, 15020 kPa, x2 = 0.4411	698 ± 4.5
343.15 K, 16000 kPa, x2 = 0.2111	685.06 ± 4.4
343.15 K, 16000 kPa, x2 = 0.3158	690.66 ± 4.4
343.15 K, 16000 kPa, x2 = 0.4411	699.01 ± 4.5
343.15 K, 16010 kPa, x2 = 0.1631	682.9 ± 4.4
343.15 K, 16010 kPa, x2 = 0.7301	727.46 ± 4.7
343.15 K, 16010 kPa, x2 = 0.8823	750.92 ± 4.8
343.15 K, 17000 kPa, x2 = 0.8823	751.86 ± 4.8
343.15 K, 17010 kPa, x2 = 0.1631	683.85 ± 4.4
343.15 K, 17010 kPa, x2 = 0.2111	686.08 ± 4.4
343.15 K, 17010 kPa, x2 = 0.3158	691.65 ± 4.4
343.15 K, 17010 kPa, x2 = 0.4411	699.99 ± 4.5
343.15 K, 17010 kPa, x2 = 0.7301	728.43 ± 4.7
343.15 K, 18000 kPa, x2 = 0.1631	684.83 ± 4.4
343.15 K, 18000 kPa, x2 = 0.7301	729.35 ± 4.7
343.15 K, 18010 kPa, x2 = 0.3158	692.6 ± 4.5
343.15 K, 18010 kPa, x2 = 0.4411	700.97 ± 4.5
343.15 K, 18020 kPa, x2 = 0.2111	687.03 ± 4.4
343.15 K, 18020 kPa, x2 = 0.8823	752.76 ± 4.8
343.15 K, 19000 kPa, x2 = 0.1631	685.78 ± 4.4
343.15 K, 19010 kPa, x2 = 0.3158	693.56 ± 4.5
343.15 K, 19010 kPa, x2 = 0.8823	753.68 ± 4.8
343.15 K, 19020 kPa, x2 = 0.2111	687.96 ± 4.4
343.15 K, 19020 kPa, x2 = 0.4411	701.92 ± 4.5
343.15 K, 19020 kPa, x2 = 0.7301	730.28 ± 4.7
343.15 K, 20000 kPa, x2 = 0.7301	731.24 ± 4.7
343.15 K, 20010 kPa, x2 = 0.1631	686.67 ± 4.4
343.15 K, 20010 kPa, x2 = 0.2111	688.89 ± 4.4
343.15 K, 20010 kPa, x2 = 0.3158	694.48 ± 4.5
343.15 K, 20010 kPa, x2 = 0.4411	702.85 ± 4.5
343.15 K, 20020 kPa, x2 = 0.8823	754.54 ± 4.8
353.15 K, 100 kPa, x2 = 0.1631	654.7 ± 4.2
353.15 K, 100 kPa, x2 = 0.2111	656.5 ± 4.2
353.15 K, 100 kPa, x2 = 0.3158	661.43 ± 4.2
353.15 K, 100 kPa, x2 = 0.4411	669.56 ± 4.3
353.15 K, 100 kPa, x2 = 0.7301	697.88 ± 4.5
353.15 K, 100 kPa, x2 = 0.8823	723.05 ± 4.6
353.15 K, 1000 kPa, x2 = 0.3158	663.09 ± 4.2
353.15 K, 1010 kPa, x2 = 0.1631	656.23 ± 4.2
353.15 K, 1010 kPa, x2 = 0.2111	658.1 ± 4.2
353.15 K, 1010 kPa, x2 = 0.4411	671.12 ± 4.3
353.15 K, 1010 kPa, x2 = 0.8823	724.42 ± 4.6
353.15 K, 1020 kPa, x2 = 0.7301	699.6 ± 4.5
353.15 K, 2000 kPa, x2 = 0.4411	672.33 ± 4.3
353.15 K, 2010 kPa, x2 = 0.2111	659.4 ± 4.2
353.15 K, 2010 kPa, x2 = 0.3158	664.39 ± 4.3
353.15 K, 2020 kPa, x2 = 0.1631	657.52 ± 4.2
353.15 K, 2020 kPa, x2 = 0.7301	700.81 ± 4.5
353.15 K, 2020 kPa, x2 = 0.8823	725.57 ± 4.7
353.15 K, 3000 kPa, x2 = 0.1631	658.76 ± 4.2
353.15 K, 3000 kPa, x2 = 0.7301	702.03 ± 4.5
353.15 K, 3010 kPa, x2 = 0.3158	665.6 ± 4.3
353.15 K, 3010 kPa, x2 = 0.4411	673.58 ± 4.3
353.15 K, 3010 kPa, x2 = 0.8823	726.72 ± 4.7
353.15 K, 3020 kPa, x2 = 0.2111	660.63 ± 4.2
353.15 K, 4000 kPa, x2 = 0.8823	727.86 ± 4.7
353.15 K, 4010 kPa, x2 = 0.2111	661.88 ± 4.2
353.15 K, 4010 kPa, x2 = 0.3158	666.84 ± 4.3
353.15 K, 4010 kPa, x2 = 0.4411	674.84 ± 4.3
353.15 K, 4010 kPa, x2 = 0.7301	703.25 ± 4.5
353.15 K, 4020 kPa, x2 = 0.1631	659.99 ± 4.2
353.15 K, 5000 kPa, x2 = 0.2111	663.08 ± 4.2
353.15 K, 5000 kPa, x2 = 0.4411	676.07 ± 4.3
353.15 K, 5010 kPa, x2 = 0.1631	661.2 ± 4.2
353.15 K, 5010 kPa, x2 = 0.3158	668.06 ± 4.3
353.15 K, 5010 kPa, x2 = 0.7301	704.44 ± 4.5
353.15 K, 5020 kPa, x2 = 0.8823	729.03 ± 4.7
353.15 K, 6000 kPa, x2 = 0.4411	677.27 ± 4.3
353.15 K, 6000 kPa, x2 = 0.7301	705.64 ± 4.5
353.15 K, 6010 kPa, x2 = 0.3158	669.31 ± 4.3
353.15 K, 6020 kPa, x2 = 0.1631	662.41 ± 4.2
353.15 K, 6020 kPa, x2 = 0.2111	664.26 ± 4.3
353.15 K, 6020 kPa, x2 = 0.8823	730.16 ± 4.7
353.15 K, 7000 kPa, x2 = 0.7301	706.83 ± 4.5
353.15 K, 7000 kPa, x2 = 0.8823	731.28 ± 4.7
353.15 K, 7010 kPa, x2 = 0.1631	663.61 ± 4.2
353.15 K, 7010 kPa, x2 = 0.2111	665.47 ± 4.3
353.15 K, 7020 kPa, x2 = 0.3158	670.48 ± 4.3
353.15 K, 7020 kPa, x2 = 0.4411	678.5 ± 4.3
353.15 K, 8010 kPa, x2 = 0.1631	664.82 ± 4.3
353.15 K, 8010 kPa, x2 = 0.3158	671.68 ± 4.3
353.15 K, 8010 kPa, x2 = 0.4411	679.69 ± 4.4
353.15 K, 8010 kPa, x2 = 0.7301	708 ± 4.5
353.15 K, 8020 kPa, x2 = 0.2111	666.69 ± 4.3
353.15 K, 8020 kPa, x2 = 0.8823	732.4 ± 4.7
353.15 K, 9000 kPa, x2 = 0.1631	666 ± 4.3
353.15 K, 9010 kPa, x2 = 0.2111	667.86 ± 4.3
353.15 K, 9010 kPa, x2 = 0.3158	672.89 ± 4.3
353.15 K, 9010 kPa, x2 = 0.4411	680.87 ± 4.4
353.15 K, 9010 kPa, x2 = 0.7301	709.2 ± 4.5
353.15 K, 9020 kPa, x2 = 0.8823	733.54 ± 4.7
353.15 K, 10000 kPa, x2 = 0.8823	734.63 ± 4.7
353.15 K, 10010 kPa, x2 = 0.1631	667.15 ± 4.3
353.15 K, 10010 kPa, x2 = 0.2111	669.02 ± 4.3

— the NIST ThermoML archive (doi:10.1021/acs.jced.8b00554)
